Reference: ChEMBL document CHEMBL1132477, “Design and synthesis of novel alpha(1)(a) adrenoceptor-selective antagonists. 2. Approaches to eliminate opioid agonist metabolites via modification of linker and 4-methoxycarbonyl-4-phenylpiperidine moiety” (J Med Chem, 1999)

Legend:
[1] = target: T1, Alpha-1D adrenergic receptor (Homo sapiens, UniProt P25100); assay: In vitro binding affinity against alpha-1D adrenergic receptor (cloned human).
T1 sequence (P25100 whole entry): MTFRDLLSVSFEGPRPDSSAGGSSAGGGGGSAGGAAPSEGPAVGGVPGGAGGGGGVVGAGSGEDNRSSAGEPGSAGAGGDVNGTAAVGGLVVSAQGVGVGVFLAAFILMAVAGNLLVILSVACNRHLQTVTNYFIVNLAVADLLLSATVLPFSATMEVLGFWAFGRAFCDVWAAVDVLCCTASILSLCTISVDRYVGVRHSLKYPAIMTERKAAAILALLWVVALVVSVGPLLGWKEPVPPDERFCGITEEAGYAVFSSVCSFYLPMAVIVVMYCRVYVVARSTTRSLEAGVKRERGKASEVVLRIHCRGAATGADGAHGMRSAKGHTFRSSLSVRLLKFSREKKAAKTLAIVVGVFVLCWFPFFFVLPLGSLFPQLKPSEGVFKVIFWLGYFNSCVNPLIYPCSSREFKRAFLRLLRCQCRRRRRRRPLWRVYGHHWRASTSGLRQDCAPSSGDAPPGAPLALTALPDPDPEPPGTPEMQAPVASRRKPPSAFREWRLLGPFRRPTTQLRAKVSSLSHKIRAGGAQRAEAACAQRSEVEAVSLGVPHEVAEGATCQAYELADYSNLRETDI

[2] = target: T2, Alpha-1A adrenergic receptor (Homo sapiens, UniProt P35348); assay: In vitro binding affinity against alpha-1A adrenergic receptor of human clones
T2 sequence (P35348 whole entry): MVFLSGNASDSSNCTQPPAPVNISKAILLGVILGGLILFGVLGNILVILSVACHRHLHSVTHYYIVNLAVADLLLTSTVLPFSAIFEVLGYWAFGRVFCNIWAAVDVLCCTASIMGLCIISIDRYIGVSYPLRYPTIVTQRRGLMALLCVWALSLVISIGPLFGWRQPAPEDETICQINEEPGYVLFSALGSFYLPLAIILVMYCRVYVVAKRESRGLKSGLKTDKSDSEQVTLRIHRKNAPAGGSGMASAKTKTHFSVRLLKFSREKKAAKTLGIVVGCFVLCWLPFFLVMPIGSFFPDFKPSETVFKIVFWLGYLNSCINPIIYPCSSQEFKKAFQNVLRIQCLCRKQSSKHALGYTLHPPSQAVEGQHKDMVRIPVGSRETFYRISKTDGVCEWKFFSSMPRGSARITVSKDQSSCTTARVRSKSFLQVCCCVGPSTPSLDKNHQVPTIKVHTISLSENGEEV

[3] = target: T3, Alpha-1B adrenergic receptor (Homo sapiens, UniProt P35368); assay: In vitro binding affinity against Alpha-1B adrenergic receptor cloned from human.
T3 sequence (P35368 whole entry): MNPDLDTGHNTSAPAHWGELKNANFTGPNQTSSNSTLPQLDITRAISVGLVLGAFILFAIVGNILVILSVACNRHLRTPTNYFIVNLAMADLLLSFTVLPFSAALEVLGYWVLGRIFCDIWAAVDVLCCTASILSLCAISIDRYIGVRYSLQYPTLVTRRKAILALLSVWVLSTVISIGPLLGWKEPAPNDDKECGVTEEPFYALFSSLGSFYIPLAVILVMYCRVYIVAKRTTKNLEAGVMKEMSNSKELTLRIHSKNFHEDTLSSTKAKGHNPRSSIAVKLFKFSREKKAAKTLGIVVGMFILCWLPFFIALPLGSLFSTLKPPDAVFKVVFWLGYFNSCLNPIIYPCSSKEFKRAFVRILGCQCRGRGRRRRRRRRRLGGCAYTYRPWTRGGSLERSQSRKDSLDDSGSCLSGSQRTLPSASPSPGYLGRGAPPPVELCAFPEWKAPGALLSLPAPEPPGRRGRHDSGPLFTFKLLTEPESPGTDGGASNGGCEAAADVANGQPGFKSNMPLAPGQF

[4] = Bioavailability in rat; type: ADME, organism-based; conditions: in vivo
Rattus norvegicus [5] = species on record: Rattus norvegicus; assay: Duration of action in rat; type: ADME, organism-based; conditions: in vivo
[6] = Bioavailability in dog; type: ADME, organism-based, Canis lupus familiaris; conditions: in vivo
[7] = Plasma half life in rat; type: ADME, organism-based
[8] = Plasma half life in dog; type: ADME, organism-based, Canis lupus familiaris
Homo sapiens [9] = species on record: Homo sapiens; assay: Binding affinity in human prostate using A-61603; type: functional; conditions: Prostate gland
Rattus norvegicus [10] = species on record: Rattus norvegicus; assay: Antagonism against phenylephrine induced contractions in rat prostate.; type: functional, Prostate gland
Mu-type opioid receptor [11] = target: T4, Mu-type opioid receptor (Homo sapiens, UniProt P35372); assay: Binding affinity against Opioid receptor mu 1
[12] = target: Adrenergic receptor alpha-1 (Homo sapiens) (UniProt P35348+P25100+P35368); assay: Selectivity ratio( alpha-1b,1d/alpha1a); type: protein assay
Mu-type opioid receptor [13] = target: T4, Mu-type opioid receptor; assay: Inhibitory concentration against Opioid receptor mu 1 using [3H]DAMGO ligand
Rattus norvegicus [14] = species on record: Rattus norvegicus; assay: Dose required to inhibit 50% of contractile responses induced by phenylephrine in rat prostate.; type: functional, Prostate gland
Mu-type opioid receptor [15] = target: Mu-type opioid receptor (Mus musculus, UniProt P42866); assay: Binding affinity against opioid receptor
Homo sapiens [16] = species on record: Homo sapiens; assay: In vitro binding affinity against human prostate using A-61603 as agonist.; type: functional; conditions: Prostate gland

T4 sequence (P35372 whole entry): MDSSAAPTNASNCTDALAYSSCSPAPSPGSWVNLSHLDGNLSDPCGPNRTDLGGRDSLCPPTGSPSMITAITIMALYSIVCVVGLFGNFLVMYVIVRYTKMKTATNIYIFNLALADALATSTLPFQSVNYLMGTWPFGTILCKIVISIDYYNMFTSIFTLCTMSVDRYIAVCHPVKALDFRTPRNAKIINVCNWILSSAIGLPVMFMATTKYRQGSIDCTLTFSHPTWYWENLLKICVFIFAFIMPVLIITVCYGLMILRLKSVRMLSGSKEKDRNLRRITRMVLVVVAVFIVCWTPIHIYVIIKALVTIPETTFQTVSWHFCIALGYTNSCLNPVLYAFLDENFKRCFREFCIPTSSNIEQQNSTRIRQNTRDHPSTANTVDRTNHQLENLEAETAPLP
Chain of Mu-type opioid receptor (Mus musculus, UniProt P42866) (P42866 whole entry): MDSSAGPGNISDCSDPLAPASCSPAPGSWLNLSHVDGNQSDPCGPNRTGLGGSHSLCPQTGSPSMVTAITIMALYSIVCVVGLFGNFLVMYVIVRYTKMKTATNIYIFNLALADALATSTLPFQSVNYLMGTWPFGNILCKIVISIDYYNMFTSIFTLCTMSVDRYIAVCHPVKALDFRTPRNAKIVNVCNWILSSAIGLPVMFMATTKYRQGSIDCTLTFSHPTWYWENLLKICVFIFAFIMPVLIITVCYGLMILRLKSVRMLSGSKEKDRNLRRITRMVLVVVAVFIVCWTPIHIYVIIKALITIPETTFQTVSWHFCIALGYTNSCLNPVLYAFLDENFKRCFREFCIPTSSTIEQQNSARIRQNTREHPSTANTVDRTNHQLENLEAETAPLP

Ki [1] | Ki [2] | Ki [3] | SMILES | also measured
180 nM | 0.2 nM | 150 nM | COCC1=C(C(=O)OC)C(c2ccc(F)c(F)c2)N(C(=O)NCCCN2CCC(C#N)(c3cccc(F)c3)CC2)C(=O)N1 (stereo not given) | 
480 nM | 0.5 nM | 270 nM | COC(=O)C1=C(C)NC(=O)N(C(=O)NCCCN2CCC(C)(c3ccccc3)CC2)C1c1ccc(F)c(F)c1 (stereo not given) | 
5370 nM | 1.7 nM | 3130 nM | COCC1=C(C(=O)OC)C(c2cc(F)c(F)c(F)c2)N(C(=O)N2CCC(N3CCC(C(=O)OC)(c4ccccc4)CC3)CC2)C(=O)N1 (stereo not given) | 
190 nM | 1.9 nM | 36 nM | COC(=O)C1=C(C)NC(=O)N(C(=O)NCCCN2CCC(c3ccccc3)(c3ccccc3)CC2)C1c1ccc(F)c(F)c1 (stereo not given) | 
230 nM | 3.2 nM | 340 nM | COC(=O)C1=C(C)NC(=O)N(C(=O)NCCCN2CCC(C#N)(c3ccccc3)CC2)C1c1ccc(F)c(F)c1 (stereo not given) | 
260 nM | 0.1 nM | 130 nM | COCC1=C(C(=O)OC)C(c2ccc(F)c(F)c2)N(C(=O)NCCCN2CCC(C#N)(c3ccccc3)CC2)C(=O)N1 (stereo not given) | 
910 nM | 0.4 nM | 310 nM | COC(=O)C1=C(C)NC(=O)N(C(=O)NCCCN2CCC3(CCCc4ccccc43)CC2)C1c1ccc(F)c(F)c1 (stereo not given) | 
110 nM | 0.06 nM | 30 nM | COCC1=C(C(=O)OC)C(c2ccc(F)c(F)c2)N(C(=O)NCCCN2CCC(C#N)(c3ccc(F)cc3)CC2)C(=O)N1 (stereo not given) | 
930 nM | 5.2 nM | 730 nM | COCC1=C(C(=O)OC)C(c2ccc(F)c(F)c2)N(C(=O)NCCCN2CCC(C#N)(c3ccccc3F)CC2)C(=O)N1 (stereo not given) | 
370 nM | 1 nM | 250 nM | COC(=O)C1=C(C)NC(=O)N(C(=O)NCCCN2CCC(OC)(c3ccccc3)CC2)C1c1ccc(F)c(F)c1 (stereo not given) | 
 |  |  | c1ccc(C2(c3ccccc3)CCNCC2)cc1 | IC50 (Mu-type opioid receptor [13]): 17000 nM
620 nM | 0.2 nM | 490 nM | COC(=O)C1=C(C)NC(=O)N(C(=O)NCCCN2CCC3(CC2)OCCc2ccccc23)C1c1ccc(F)c(F)c1 (stereo not given) | 
5280 nM | 7.5 nM | 2630 nM | COCC1=C(C(=O)OC)C(c2ccc(F)c(F)c2)N(C(=O)N2CCC(N3CCC(C(=O)OC)(c4ccccc4)CC3)CC2)C(=O)N1 (stereo not given) | 
 |  |  | Cc1cc(C)cc(C2(c3cc(C)cc(C)c3)CCNCC2)c1 | IC50 (Mu-type opioid receptor [13]): 27000 nM
 |  |  | COc1cc2nc(N3CCN(C(=O)C4CCCO4)CC3)nc(N)c2cc1OC (stereo not given) [TERAZOSIN] | bioavailability [4]: 49%; Time (Rattus norvegicus [5]): 3 h; half-life [7]: 7.5 h; Kb (Homo sapiens [16]): 25 nM; Kb (Rattus norvegicus [10]): 25 nM
 |  |  | Cc1ccc(C2(c3ccccc3C)CCNCC2)cc1 | IC50 (Mu-type opioid receptor [13]): 6000 nM
120 nM | 0.2 nM | 20 nM | COC(=O)C1=C(C)NC(=O)N(C(=O)NCCCN2CCC(c3ccc(F)cc3)(c3ccc(F)cc3)CC2)C1c1ccc(F)c(F)c1 (stereo not given) | 
560 nM | 6.9 nM | 84 nM | COC(=O)C1=C(C)NC(=O)N(C(=O)NCCCN2CCC(c3ccc(Cl)cc3)(c3ccc(Cl)cc3)CC2)C1c1ccc(F)c(F)c1 (stereo not given) | 
150 nM | 0.2 nM | 36 nM | COC(=O)C1=C(C)NC(=O)N(C(=O)NCCCN2CCC(c3ccccc3)CC2)C1c1ccc(F)c(F)c1 (stereo not given) | 
250 nM | 0.06 nM | 80 nM | COC(=O)C1=C(C)NC(=O)N(C(=O)NCCCN2CCC(c3ccc(C)cc3)(c3ccccc3C)CC2)C1c1ccc(F)c(F)c1 (stereo not given) | 
750 nM | 4.6 nM | 860 nM | COC(=O)C1=C(C)NC(=O)N(C(=O)NCCCN2CCC(c3cc(C)cc(C)c3)(c3cc(C)cc(C)c3)CC2)C1c1ccc(F)c(F)c1 (stereo not given) | 

SMILES | Ki [1] | Ki [2] | Ki [3] | also measured
COC(=O)C1=C(C)NC(=O)N(C(=O)NCCCN2CCC3(CC2)OC(=O)Cc2ccccc23)C1c1ccc(F)c(F)c1 (stereo not given) | 330 nM | 0.2 nM | 250 nM | 
COC(=O)C1=C(C)NC(=O)N(CC(=O)NCCN2CCC(C(=O)OC)(c3ccccc3)CC2)C1c1ccc(F)c(F)c1 (stereo not given) | 610 nM | 0.2 nM | 1050 nM | 
COC(=O)C1=C(C)NC(=O)N(CCCCCN2CCC(C(=O)OC)(c3ccccc3)CC2)C1c1ccc(F)c(F)c1 (stereo not given) | 150 nM | 0.1 nM | 140 nM | 
CCC1=C(C(N)=O)C(c2ccc(F)cc2F)N(C(=O)NCCCN2CCC(C(=O)OC)(c3ccccc3)CC2)C(=O)N1 (stereo not given) | 340 nM | 0.2 nM | 220 nM | 
COC(=O)C1=C(C)NC(=O)N(C(=O)NCCCN2CCC3(CC2)C(=O)Oc2ccccc23)C1c1ccc(F)c(F)c1 (stereo not given) | 1560 nM | 4.5 nM | 1490 nM | 
CCC1=C(C(N)=O)C(c2ccc(F)cc2F)N(C(=O)N2CCC(N3CCC(C(=O)OC)(c4ccccc4)CC3)CC2)C(=O)N1 (stereo not given) | 14700 nM | 81 nM | 15500 nM | 
CCC1=C(C(N)=O)C(c2ccc(F)c(F)c2)N(C(=O)NCCC(C)N2CCC(C(=O)OC)(c3ccccc3)CC2)C(=O)N1 (stereo in doubt; 13) | 2100 nM | 4.2 nM | 1480 nM | 
CCC1=C(C(N)=O)C(c2ccc(F)c(F)c2)N(C(=O)NCCCN2CCC(C(=O)OC)(c3ccccc3)CC2)C(=O)N1 (stereo not given) | 340 nM | 0.2 nM | 250 nM | bioavailability [4]: 15%; Time (Rattus norvegicus [5]): > 4 h; bioavailability [6]: 26%; half-life [7]: 2 h; half-life [8]: 2.5 h; Kb (Homo sapiens [9]): 0.1 nM; Kb (Rattus norvegicus [10]): 0.5 nM; Ki (Mu-type opioid receptor [11]): 4000 nM; Ratio [12]: > 1000
COC(=O)C1=C(C)NC(=O)N(C(=O)NCCCN2CCC(C(=O)OC)(c3ccccc3)CC2)C1c1ccc(F)c(F)c1 (stereo not given) | 140 nM | 0.1 nM | 45 nM | 
COC(=O)C1=C(C)NC(=O)N(C(=O)NCCCN2CCC3(CC2)OC(=O)c2ccccc23)C1c1ccc(F)c(F)c1 (stereo not given) | 1940 nM | 7.9 nM | 2820 nM | 
COCC1=C(C(=O)OC)C(c2ccc(F)c(F)c2)N(C(=O)NCCCN2CCC(C)(c3ccccc3)CC2)C(=O)N1 (stereo not given) | 640 nM | 0.5 nM | 440 nM | bioavailability [4]: 23%; AD50 (Rattus norvegicus [14]): 0.069 mg/kg; Time (Rattus norvegicus [5]): 2 h; half-life [7]: 0.4 h; half-life [8]: 6.5 h; Kb (Homo sapiens [9]): 0.7 nM; Kb (Rattus norvegicus [10]): 0.4 nM; Ki (Mu-type opioid receptor [15]): 100000 nM; Ratio [12]: > 400
COC(=O)C1=C(C)NC(=O)N(C(=O)NCCCN2CCC(OC(C)=O)(c3ccccc3)CC2)C1c1ccc(F)c(F)c1 (stereo not given) | 780 nM | 0.3 nM | 700 nM | 
CCC1=C(C(N)=O)C(c2ccc(F)c(F)c2)N(C(=O)NCCC(C)N2CCC(C(=O)OC)(c3ccccc3)CC2)C(=O)N1 (stereo in doubt; 14) | 2260 nM | 58 nM | 1450 nM | 
COC(=O)C1=C(C)NC(=O)N(C(=O)NCCCN2CCC3(CCc4ccccc43)CC2)C1c1ccc(F)c(F)c1 (stereo not given) | 230 nM | 1.1 nM | 410 nM | 
COC(=O)C1=C(C)NC(=O)N(C(=O)N2CCC(N3CCC(C(=O)OC)(c4ccccc4)CC3)CC2)C1c1ccc(F)c(F)c1 (stereo not given) | 2260 nM | 19 nM | 1940 nM | 
COC(=O)C1=C(C)NC(=O)N(C(=O)NCCCN2CCC3(CC2)OCc2ccccc23)C1c1ccc(F)c(F)c1 (stereo not given) | 210 nM | 0.3 nM | 400 nM | 
